Data as given in patent US9115212B2, “Bifunctional peptide” (REGENTIS INTERNATIONAL, priority 2012, dated 2015).
Where a SMILES comes first, the peptide text is derived from it.

Assays:
COL3A1 gene = test: Gene expression of COL3A1 in fibroblast cultures (real-time PCR); format: cell-based, human; settings: fibroblasts, 100 μg/ml, 24 h; for gene expression of type III collagen (COL3A1): normalised to GAPDH
Method: (§1) The gene expression of the type I and III collagens in cultures of fibroblasts was also tested in the presence of the different peptides (pept 1 to pept 5) at a concentration of 100 μg/ml.
(§2) After 24 h of treatment with different peptides, the RNAs were extracted from the cultures using a RNeasy® kit (QIAGEN), then re-transcribed into complementary DNAs (cDNAs) using the RT2 First Strand Kit from SABiosciences™.
(§3) Real-time PCR analyses were then performed using the Mx3000p thermocycler from Stratagene in a 96-well plate. Each sample was analyzed in triplicate. The CDNAs serve as matrices in a reaction mixture containing the RT2 SYBR® Green/ROX™ qPCR Master Mix reagents (SABiosciences™) and the sense and antisense primers specific for the gene to be amplified. The reading of the fluorescence was performed at the end of each cycle and analyzed by means of the MxPro software (Stratagene). The relative expression of the COL1A1 and COL3A1 genes of interest coding for type I and type III collagen was obtained by normalizing the amount of products for amplifying the gene being studied by the amount of DNA amplified from a “domestic” gene, in this case the RNA of the gene encoding for the glyceraldehyde-3-phosphate dehydrogenase (GAPDH). As from the number of cycles corresponding to an amplification with a 100% efficiency, the relative quantity of cDNAs studied was calculated using the 2-AACT method (Livak & Schmittgen, 2001).
(§4) The control (Ctrl) corresponds to the expression of the genes coding for both types of collagen when the fibroblasts are not treated.

type I collagen = test: Protein expression of type I collagen in dermal fibroblasts (Western Blot, ImageJ); format: cell-based, human; settings: peptide 100 μg/ml, vs untreated control
Method: (§5) The dermal fibroblasts were isolated from abdomen skin biopsies obtained during surgery operations performed on healthy patients between 35 and 75 years of age.
(§6) After removing the epidermis, the fibroblasts were recovered by enzymatic digestion, then were cultured at 37° C. in DMEM (Dulbecco's Modified Eagle Medium) medium supplemented with 10% fetal calf serum and 1% penicillin/streptomycin.
(§7) The fibroblasts were then treated with the peptide having sequence […] (SEQ. ID NO. 1), or various fragments of this sequence, at a concentration of 100 μg/ml. The various fragments tested are as follows: • peptide 1 (pept 1): peptide having the sequence […] (SEQ. ID NO. 1), • peptide 2 (pept 2): sequence […] (SEQ. ID NO. 1), wherein N-terminal and C-terminal ends correspond to N and OH, respectively • peptide 3 (pept 3): (VGVAPG (SEQ. ID NO: 29))3, wherein N-terminal and C-terminal ends correspond to N and OH, respectively • peptide 4 (pept 4): RVRLIL (SEQ. ID NO. 32, wherein N-terminal and C-terminal ends correspond to N and OH, respectively • peptide 5 (pept 5): N-Gly-Ile-Leu-OH
The protein expression of the type I collagen and the type III collagen has then been shown by Western Blot and quantified by ImageJ. The results are shown respectively in the attached FIGS. 3A and 3B. The control (Ctrl) corresponds to the expression of type I and III collagen at the level of cells not treated with peptides. The experiments were performed in triplicate.

COL1A1 gene = test: Gene expression of COL1A1 in fibroblast cultures (real-time PCR); format: cell-based, human; settings: fibroblasts, 100 μg/ml, 24 h, normalised to GAPDH
Method: as §1, §2, §3, §4

MMP-1 [1] = biological target: T1, MMP-1 (Homo sapiens, UniProt P03956); test: MMP-1 activity on synthetic substrate DNP-Pro-Cha-Gly-Cys (Me)-His-Ala-Lys (N-Me-Abz)-NH2; format: biochemical
T1 sequence (P03956 100-469): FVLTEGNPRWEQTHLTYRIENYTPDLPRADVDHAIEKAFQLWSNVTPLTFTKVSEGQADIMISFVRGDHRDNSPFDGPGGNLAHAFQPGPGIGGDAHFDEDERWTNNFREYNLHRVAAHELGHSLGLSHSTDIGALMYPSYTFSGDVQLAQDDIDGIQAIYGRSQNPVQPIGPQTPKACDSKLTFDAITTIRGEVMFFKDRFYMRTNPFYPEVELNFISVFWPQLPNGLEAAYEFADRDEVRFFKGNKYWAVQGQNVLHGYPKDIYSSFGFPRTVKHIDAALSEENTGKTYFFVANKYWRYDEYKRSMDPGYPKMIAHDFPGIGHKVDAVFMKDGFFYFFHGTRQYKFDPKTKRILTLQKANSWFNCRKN
Method: The substrate of the MMP-1 that was used to test its activity in the presence of the peptide is a synthetic substrate, DNP-Pro-Cha-Gly-Cys (Me)-His-Ala-Lys (N-Me-Abz)-NH2.
A concentration of 80 ng/μl of MMP-1 was brought in the presence of 0.4 ng/μl of synthetic substrate, in the presence or not of bifunctional peptide concentrated at 10^−3, 10^−4 and 10^−5 M for 1 h.
More particularly, FIG. 7A represents a kinetics of hydrolysis of the synthetic substrate of the MMP-1 in the presence or absence (control) of the peptide at different concentrations. The enzymatic activity of the MMP-1 was evaluated by measuring the absorbance (DO) at 465 nm every 5 minutes for a period of 35 min.
FIG. 7B is a graphical representation of the dose-effect relationship between the activity of the MMP-1 and the concentration of bifunctional peptide used at time 15 min.
The Gly-Ile-Leu (GIL) sequence was selected by the inventors for its capability of occupying the P′1, P′2 and P′3 pockets of type I collagenase, the MMP-1. The activity of the latter has been tested on the synthetic substrate, the DNP-Pro-Cha-Gly-Cys (Me)-His-Ala-Lys(N-Me-Abz)-NH2, in the presence or absence of the peptide 5 having the Gly-Ile-Leu (GIL) sequence at concentrations of 10^−5, 10^−4 and 10^−3 M.

type III collagen = test: Protein expression of type III collagen in dermal fibroblasts (Western Blot, ImageJ); format: cell-based, human; settings: peptide 100 μg/ml
Method: as §5, §6, §7
The protein expression of the type I collagen and the type III collagen has then been shown by Western Blot and quantified by ImageJ. The results are shown respectively in the attached FIGS. 3A and 3B. […]

[2] = tested on: type I and type III collagen; test: Collagen expression depending on the age of the patients; format: cell-based, human; settings: dermal fibroblasts from patients
Method: Dermal fibroblasts from younger or older patients were cultured and the bifunctional peptide according to the invention having the sequence […] (SEQ. ID NO. 1) has been tested as to the protein and gene expression of type I and type III collagen. The results obtained as regards the protein expression of the two types of collagen are visible in FIG. 5.

urokinase [3] = biological target: T2, urokinase (Homo sapiens, UniProt P00749); test: Urokinase activity on synthetic substrate S2444; format: biochemical
Method: The activity of the urokinase on its synthetic substrate, D-Glu-Gly-Arg+NHPhNO2 L-Pyroglutamyl-glycyl-L-arginine-p-Nitroaniline hydrochloride (2444) has been tested in the presence and absence of the peptide according to the invention at different concentrations.
A kinetics of hydrolysis of the substrate S2444 […] by the urokinase (9.25*10^−6 mM) was carried out in the presence of the bifunctional peptide having the sequence […] (SEQ. ID NO. 1) and concentrated at 10^−3, 10^−4 and 10^−5 M for 1 hour. The control corresponds to the kinetics in the absence of peptide. The enzyme activity was evaluated by measuring the absorbance (DO) at 405 nm every 5 minutes for a period of 35 min.
FIG. 6B is a graphical representation of the dose/effect relationship between the activity of the urokinase and the concentration of the bifunctional peptide used at time 15 min. The dotted line in the figure permits to determine the IC50, i.e. the peptide concentration required to reduce the activity of the urokinase by 50%.

toxicity genes = test: Toxicity genes through the SAM (Significance Analysis of Microarrays) statistical approach; format: cell-based
Method: (§8) According to an embodiment, the bifunctional peptide is used preferably at a concentration substantially between 10 μg/ml and 1 mg/ml. Indeed, no toxicity of the peptide according to the invention has been observed on dermal fibroblasts treated with peptide concentrations up to 1 mg/ml. In addition, studies conducted in order to find the toxicity genes through the SAM (Significance Analysis of Microarrays) statistical approach have shown that the cell death, the disruption of the conjunctive tissue and the tumor invasion are induced only from a high concentration of bifunctional peptide, higher than 1 mg/ml.

urokinase [4] = biological target: T2, urokinase; test: Cleavage of the bifunctional peptide by the urokinase (HPLC); settings: excess of urokinase, peptide 0.45 mM
Method: At the pericellular level, an excess of urokinase was observed, of about 10^−4 M. The peptide could thus be cleaved by the urokinase, the latter acting in particular at the level of the arginine residues (Arg) of the portion B of the peptide according to the invention.
Studies were conducted by HPLC on a Chromolith Jupiter C18 column (50×4.6 mm), and applying a linear gradient of 0.1% TFA of acetonitrile in 0.1% TFA of water, 0 to 100% for 100 min. […] However, after the action of an excess of urokinase on the bifunctional peptide (0.45 mM), the spectral peak was different; indeed, the new peak was eluted at 20 min, thus characterizing a cleavage of the bifunctional peptide by the urokinase (FIG. 8B).

MMP-1 [5] = biological target: T1, MMP-1; test: MMP-1 activity on natural substrate, collagen fibers of human dermis (cuts of skin, immunostaining); settings: APMA-activated MMP-1, peptide 100 μg/ml, 3 h
Method: The effects of the peptide according to the invention were also tested on the activity of the MMP-1 in the presence of its natural substrate, i.e. the collagen fibers of human dermis.
To this end, the MMP-1 has previously been activated by APMA (4-aminophenylmercuric acetate) at 20 mM for 1 h30 at 37° C. The so activated MMP-1 was then deposited on cuts of skin having a thickness of 5μ in the presence or absence of the peptide according to the invention (100 μg/ml). After 3 h, the cuts of skin were immunostained, in order to reveal the presence of type I and III collagen, then observed by confocal microscopy. […] On the other hand, in the presence of the bifunctional peptide, the action of said MMP-1 was inhibited; indeed, the collagens I and III were detected.

dermal fibroblasts = test: Toxicity on dermal fibroblasts; format: cell-based; settings: peptide concentrations up to 1 mg/ml
Method: as §8

## (VGVAPG (SEQ. ID NO: 29))3 [pept 3]
COL3A1 gene
  gene expression of type III collagen (COL3A1): stimulate
Type I collagen
  stimulation of the protein expression of the type I collagen: 30%
COL1A1 gene
  gene expression of type I collagen (COL1A1): stimulate

## VGVAPGVAVAPGVAVAPGRVRLGIL [pept 2]
COL3A1 gene
  gene expression of type III collagen (COL3A1): stimulate
Type I collagen
  stimulation of the protein expression of the type I collagen: 30%
COL1A1 gene
  gene expression of type I collagen (COL1A1): stimulate

## RVRLIL [pept 4, ID NO; 32]
COL3A1 gene
  gene expression of type III collagen (COL3A1): no effect
Type I collagen
  stimulation of the protein expression of the type I collagen: do not permit the stimulation
COL1A1 gene
  gene expression of type I collagen (COL1A1): no effect

## CC[C@H](C)[C@H](NC(=O)CN)C(=O)N[C@@H](CC(C)C)C(=O)O [pept 5, N-Gly-Ile-Leu-OH] (H-Gly-Ile-Leu-OH)
MMP-1 [1]; 10^−5, 10^−4 and 10^−3 M
  effect on the activity of the MMP-1 on its synthetic substrate: decreases in a dose-dependent way
MMP-1 [1]; synthetic substrate, time 15 min, read-out: IC50 MMP-1 activity, peptide concentration (converted)
  IC50: 70.7 µM
COL3A1 gene
  gene expression of type III collagen (COL3A1): no effect
Type I collagen
  stimulation of the protein expression of the type I collagen: do not permit the stimulation
COL1A1 gene
  gene expression of type I collagen (COL1A1): no effect

## CC[C@H](C)[C@H](NC(=O)CNC(=O)[C@H](CC(C)C)NC(=O)[C@H](CCCNC(=N)N)NC(=O)[C@@H](NC(=O)[C@H](CCCNC(=N)N)NC(=O)CNC(=O)[C@@H]1CCCN1C(=O)[C@H](C)NC(=O)[C@@H](NC(=O)[C@H](C)NC(=O)[C@@H](NC(=O)CNC(=O)[C@@H]1CCCN1C(=O)[C@H](C)NC(=O)[C@@H](NC(=O)[C@H](C)NC(=O)[C@@H](NC(=O)CNC(=O)[C@@H]1CCCN1C(=O)[C@H](C)NC(=O)[C@@H](NC(=O)CNC(=O)[C@@H](N)C(C)C)C(C)C)C(C)C)C(C)C)C(C)C)C(C)C)C(C)C)C(=O)N[C@@H](CC(C)C)C(=O)O [pept 1] (H-VGVAPGVAVAPGVAVAPGRVRLGIL-OH)
Type III collagen; relative to pept 3
  increase in the synthesis of type III collagen compared to fibroblasts treated with pept 3: 36%
Type III collagen; vs untreated control
  production of type III collagen: more than doubled
[2]
  action on the synthesis of collagen depending on the age of the patients: greater when the fibroblasts proceed from older patients
Urokinase [3]
  mode of urokinase inhibition: competitive inhibitor
COL3A1 gene
  gene expression of type III collagen (COL3A1): stimulate
COL3A1 gene; relative to peptide 3
  synthesis of type III collagen (gene expression) with respect to cells treated with peptide 3: increase
Type I collagen
  stimulation of the protein expression of the type I collagen: 30%
COL1A1 gene
  gene expression of type I collagen (COL1A1): stimulate
Toxicity genes
  concentration from which cell death, disruption of the conjunctive tissue and tumor invasion are induced: higher than 1 mg/ml
Urokinase [4]
  cleavage by urokinase: cleavage
MMP-1 [5]
  action of MMP-1 on collagens I and III of cuts of skin: inhibited
Dermal fibroblasts
  toxicity on dermal fibroblasts: no toxicity
